What was measured:
Test in all cases: KINOMEscan
Type in all cases: binding
Settings in all cases: 2000 nM
PKMYT1 = target: T1, PKMYT1 (Homo sapiens, UniProt Q99640)
T1 construct: DNA label (qPCR read-out); purchased KINOMEscan (DiscoveRx) panel

EPHB6 = target: T2, EPHB6 (Homo sapiens, UniProt O15197)
T2 construct: DNA label (qPCR read-out); purchased DiscoveRx (KINOMEscan ScanMAX panel)

NEK9 = target: T3, NEK9 (Homo sapiens, UniProt Q8TD19)
T3 construct: DNA label (qPCR read-out); purchased KINOMEscan (ScanMAX panel service)

[1] = target: T4, JAK3(JH1domain-catalytic) (Homo sapiens, UniProt P52333)
T4 construct: JAK3(JH1domain-catalytic); DNA label (for qPCR read-out); purchased DiscoveRx (KINOMEscan scanMAX panel)

SNRK = target: T5, SNRK (Homo sapiens, UniProt Q9NRH2)
T5 construct: purchased KINOMEscan (DiscoveRx)

ERBB2 = target: T6, ERBB2 (Homo sapiens, UniProt P04626)
T6 construct: DNA label (qPCR read-out); purchased DiscoveRx (KINOMEscan ScanMAX panel)

SRC = target: T7, SRC (Homo sapiens, UniProt P12931)
T7 construct: purchased KINOMEscan (DiscoveRx)

MARK2 = MARK2 (Homo sapiens, UniProt Q7KZI7)
DAPK2 = target: T8, DAPK2 (Homo sapiens, UniProt Q9UIK4)
T8 construct: DNA label; purchased DiscoveRx (KINOMEscan scanMAX panel)

ERK5 = target: T9, ERK5 (Homo sapiens, UniProt Q13164)
T9 construct: DNA label (qPCR read-out); purchased DiscoveRx (KINOMEscan ScanMAX panel)

ULK2 = target: T10, ULK2 (Homo sapiens, UniProt Q8IYT8)
T10 construct: DNA label (for qPCR read-out); purchased DiscoveRx (KINOMEscan scanMAX panel)

CDC2L2 = target: T11, CDC2L2 (Homo sapiens, UniProt Q9UQ88)
T11 construct: purchased DiscoverX (KINOMEscan service)

MST4 = target: T12, MST4 (Homo sapiens, UniProt Q9P289)
T12 construct: DNA label (for qPCR read-out); purchased KINOMEscan scanMAX panel (DiscoveRx)

ARK5 = target: T13, ARK5 (Homo sapiens, UniProt O60285)
T13 construct: DNA label (qPCR read-out); purchased KINOMEscan scanMAX panel (DiscoveRx)

RIPK5 = target: T14, RIPK5 (Homo sapiens, UniProt Q6XUX3)
T14 construct: DNA label (qPCR read-out); purchased DiscoveRx (KINOMEscan ScanMAX panel)

BRAF(V600E) = target: T15, BRAF(V600E) (Homo sapiens, UniProt P15056, V600E)
T15 construct: DNA label (for qPCR read-out); purchased KINOMEscan scanMAX panel (DiscoveRx)

PAK6 = target: T16, PAK6 (Homo sapiens, UniProt Q9NQU5)
T16 construct: purchased DiscoverX (KINOMEscan service)

AURKA = target: T17, AURKA (Homo sapiens, UniProt O14965)
T17 construct: DNA label (qPCR read-out); purchased KINOMEscan scanMAX panel (DiscoveRx)

DDR1 = target: T18, DDR1 (Homo sapiens, UniProt Q08345)
T18 construct: DNA label (qPCR read-out); purchased KINOMEscan (DiscoveRx) panel

PIK4CB = target: T19, PIK4CB (Homo sapiens, UniProt Q9UBF8)
T19 construct: DNA label; purchased DiscoveRx (KINOMEscan scanMAX panel)

KIT (D816H) = target: T20, KIT (D816H) (Homo sapiens, UniProt P10721, D816H)
T20 construct: DNA label (for qPCR read-out); purchased DiscoveRx (KINOMEscan scanMAX panel)

[2] = target: T21, EGFR(L747-S752del, P753S) (Homo sapiens, UniProt P00533, DEL747-752/P753S)
T21 construct: purchased DiscoveRx (KINOMEscan scanMAX panel)

EGFR(G719S) = target: T22, EGFR(G719S) (Homo sapiens, UniProt P00533, G719S)
T22 construct: purchased DiscoveRx (KINOMEscan scanMAX panel)

LZK = LZK (Homo sapiens, UniProt O43283)
NDR2 = target: T23, NDR2 (Homo sapiens, UniProt Q9Y2H1)
T23 construct: DNA label (for qPCR read-out); purchased KINOMEscan scanMAX panel (DiscoveRx)

SGK2 = target: T24, SGK2 (Homo sapiens, UniProt Q9HBY8)
T24 construct: purchased KINOMEscan (DiscoveRx)

PIK3CA(M1043I) = target: T25, PIK3CA(M1043I) (Homo sapiens, UniProt P42336, M1043I)
T25 construct: DNA label; purchased DiscoveRx (KINOMEscan scanMAX panel)

RIPK1 = target: T26, RIPK1 (Homo sapiens, UniProt Q13546)
T26 construct: DNA label (qPCR read-out); purchased DiscoveRx (KINOMEscan ScanMAX panel)

ERN1 = target: T27, ERN1 (Homo sapiens, UniProt O75460)
T27 construct: DNA label (qPCR read-out); purchased DiscoveRx (KINOMEscan ScanMAX panel)

DAPK1 = target: T28, DAPK1 (Homo sapiens, UniProt P53355)
T28 construct: DNA label; purchased DiscoveRx (KINOMEscan scanMAX panel)

BMPR2 = target: T29, BMPR2 (Homo sapiens, UniProt Q13873)
T29 construct: DNA label (for qPCR read-out); purchased KINOMEscan scanMAX panel (DiscoveRx)

[3] = target: T30, RSK3(Kin.Dom.1-N-terminal) (Homo sapiens, UniProt Q15349)
T30 construct: RSK3(Kin.Dom.1); purchased DiscoveRx (KINOMEscan scanMAX panel)

MST1 = target: T31, MST1 (Homo sapiens, UniProt Q13043)
T31 construct: DNA label (qPCR read-out); purchased KINOMEscan scanMAX panel (DiscoveRx)

[4] = target: T32, RPS6KA4(Kin.Dom.1-N-terminal) (Homo sapiens, UniProt O75676)
T32 construct: Kin.Dom.1; DNA label (qPCR read-out); purchased DiscoveRx (KINOMEscan ScanMAX panel)

[5] = target: ABL1(H396P)-phosphorylated (Homo sapiens, UniProt P00519, H396P)

T3 sequence (Q8TD19 whole entry): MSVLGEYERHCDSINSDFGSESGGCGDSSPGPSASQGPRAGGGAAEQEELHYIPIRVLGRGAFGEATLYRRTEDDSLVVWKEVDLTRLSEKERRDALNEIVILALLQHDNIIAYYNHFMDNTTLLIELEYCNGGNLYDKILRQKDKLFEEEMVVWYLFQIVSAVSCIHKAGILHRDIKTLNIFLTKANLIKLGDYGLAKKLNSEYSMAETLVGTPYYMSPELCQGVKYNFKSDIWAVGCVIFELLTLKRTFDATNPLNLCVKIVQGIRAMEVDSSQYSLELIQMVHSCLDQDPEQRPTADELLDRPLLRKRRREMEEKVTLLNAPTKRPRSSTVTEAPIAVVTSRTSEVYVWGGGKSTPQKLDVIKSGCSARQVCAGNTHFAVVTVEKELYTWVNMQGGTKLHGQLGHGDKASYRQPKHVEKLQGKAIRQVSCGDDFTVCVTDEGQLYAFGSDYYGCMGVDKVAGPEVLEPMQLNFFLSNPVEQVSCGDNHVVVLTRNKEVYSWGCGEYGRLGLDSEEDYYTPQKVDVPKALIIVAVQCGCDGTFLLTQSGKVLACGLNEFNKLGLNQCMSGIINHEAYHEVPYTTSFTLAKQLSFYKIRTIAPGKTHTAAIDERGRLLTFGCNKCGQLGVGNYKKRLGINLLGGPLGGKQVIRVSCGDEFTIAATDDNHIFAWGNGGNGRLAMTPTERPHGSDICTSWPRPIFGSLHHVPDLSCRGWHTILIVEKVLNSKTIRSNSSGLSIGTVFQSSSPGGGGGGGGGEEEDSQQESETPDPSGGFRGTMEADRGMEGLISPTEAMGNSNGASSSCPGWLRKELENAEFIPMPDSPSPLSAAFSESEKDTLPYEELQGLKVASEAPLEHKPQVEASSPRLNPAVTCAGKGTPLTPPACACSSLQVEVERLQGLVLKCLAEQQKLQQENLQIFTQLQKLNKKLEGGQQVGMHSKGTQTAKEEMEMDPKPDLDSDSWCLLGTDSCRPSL
T16 sequence (Q9NQU5 whole entry): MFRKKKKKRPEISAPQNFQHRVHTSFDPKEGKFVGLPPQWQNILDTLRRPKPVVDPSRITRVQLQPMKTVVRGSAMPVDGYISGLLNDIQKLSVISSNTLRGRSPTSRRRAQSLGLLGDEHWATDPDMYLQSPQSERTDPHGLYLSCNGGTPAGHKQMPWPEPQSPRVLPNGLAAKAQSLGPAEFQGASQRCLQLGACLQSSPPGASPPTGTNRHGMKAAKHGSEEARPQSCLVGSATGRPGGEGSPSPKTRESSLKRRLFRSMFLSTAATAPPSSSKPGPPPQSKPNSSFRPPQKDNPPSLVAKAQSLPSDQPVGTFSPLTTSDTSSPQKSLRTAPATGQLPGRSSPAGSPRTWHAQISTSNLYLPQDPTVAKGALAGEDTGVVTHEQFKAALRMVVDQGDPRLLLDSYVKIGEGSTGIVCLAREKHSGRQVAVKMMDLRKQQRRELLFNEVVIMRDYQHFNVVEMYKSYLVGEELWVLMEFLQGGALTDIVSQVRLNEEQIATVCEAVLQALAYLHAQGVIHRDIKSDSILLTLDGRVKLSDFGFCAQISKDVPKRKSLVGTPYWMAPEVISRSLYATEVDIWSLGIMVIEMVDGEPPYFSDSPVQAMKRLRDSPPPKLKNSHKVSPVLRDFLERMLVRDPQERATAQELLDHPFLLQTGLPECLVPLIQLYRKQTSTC
T7 sequence (P12931 whole entry): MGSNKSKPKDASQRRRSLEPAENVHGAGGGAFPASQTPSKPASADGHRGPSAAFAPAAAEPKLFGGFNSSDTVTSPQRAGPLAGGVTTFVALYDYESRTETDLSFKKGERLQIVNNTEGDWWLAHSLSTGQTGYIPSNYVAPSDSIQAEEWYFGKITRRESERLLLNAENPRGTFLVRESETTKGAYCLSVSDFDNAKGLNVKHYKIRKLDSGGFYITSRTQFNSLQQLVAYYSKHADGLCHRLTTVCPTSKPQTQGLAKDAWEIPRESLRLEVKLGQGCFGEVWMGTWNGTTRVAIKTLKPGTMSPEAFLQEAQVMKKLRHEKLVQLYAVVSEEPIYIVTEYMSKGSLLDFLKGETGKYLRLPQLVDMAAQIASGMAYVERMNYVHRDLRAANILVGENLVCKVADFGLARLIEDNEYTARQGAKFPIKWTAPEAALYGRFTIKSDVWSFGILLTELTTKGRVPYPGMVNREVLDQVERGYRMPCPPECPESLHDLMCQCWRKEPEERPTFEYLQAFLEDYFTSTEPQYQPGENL
T13 sequence (O60285 whole entry): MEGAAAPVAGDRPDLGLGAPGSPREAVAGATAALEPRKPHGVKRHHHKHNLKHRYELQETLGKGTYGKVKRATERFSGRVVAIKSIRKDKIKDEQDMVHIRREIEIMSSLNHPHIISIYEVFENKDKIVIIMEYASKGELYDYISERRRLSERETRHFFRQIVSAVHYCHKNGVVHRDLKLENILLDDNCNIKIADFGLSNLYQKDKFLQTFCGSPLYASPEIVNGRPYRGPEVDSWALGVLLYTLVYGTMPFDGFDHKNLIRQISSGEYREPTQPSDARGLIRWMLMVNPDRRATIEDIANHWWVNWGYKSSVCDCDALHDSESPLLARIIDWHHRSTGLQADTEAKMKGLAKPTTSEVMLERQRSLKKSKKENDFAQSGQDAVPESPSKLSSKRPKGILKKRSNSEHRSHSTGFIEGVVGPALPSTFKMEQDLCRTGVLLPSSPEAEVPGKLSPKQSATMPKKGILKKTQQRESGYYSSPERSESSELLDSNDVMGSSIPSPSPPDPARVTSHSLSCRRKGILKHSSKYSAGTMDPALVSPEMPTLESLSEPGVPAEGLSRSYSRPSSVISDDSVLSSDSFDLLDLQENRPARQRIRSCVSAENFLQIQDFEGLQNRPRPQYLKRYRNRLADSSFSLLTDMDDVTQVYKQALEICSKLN
T2 sequence (O15197 32-1021): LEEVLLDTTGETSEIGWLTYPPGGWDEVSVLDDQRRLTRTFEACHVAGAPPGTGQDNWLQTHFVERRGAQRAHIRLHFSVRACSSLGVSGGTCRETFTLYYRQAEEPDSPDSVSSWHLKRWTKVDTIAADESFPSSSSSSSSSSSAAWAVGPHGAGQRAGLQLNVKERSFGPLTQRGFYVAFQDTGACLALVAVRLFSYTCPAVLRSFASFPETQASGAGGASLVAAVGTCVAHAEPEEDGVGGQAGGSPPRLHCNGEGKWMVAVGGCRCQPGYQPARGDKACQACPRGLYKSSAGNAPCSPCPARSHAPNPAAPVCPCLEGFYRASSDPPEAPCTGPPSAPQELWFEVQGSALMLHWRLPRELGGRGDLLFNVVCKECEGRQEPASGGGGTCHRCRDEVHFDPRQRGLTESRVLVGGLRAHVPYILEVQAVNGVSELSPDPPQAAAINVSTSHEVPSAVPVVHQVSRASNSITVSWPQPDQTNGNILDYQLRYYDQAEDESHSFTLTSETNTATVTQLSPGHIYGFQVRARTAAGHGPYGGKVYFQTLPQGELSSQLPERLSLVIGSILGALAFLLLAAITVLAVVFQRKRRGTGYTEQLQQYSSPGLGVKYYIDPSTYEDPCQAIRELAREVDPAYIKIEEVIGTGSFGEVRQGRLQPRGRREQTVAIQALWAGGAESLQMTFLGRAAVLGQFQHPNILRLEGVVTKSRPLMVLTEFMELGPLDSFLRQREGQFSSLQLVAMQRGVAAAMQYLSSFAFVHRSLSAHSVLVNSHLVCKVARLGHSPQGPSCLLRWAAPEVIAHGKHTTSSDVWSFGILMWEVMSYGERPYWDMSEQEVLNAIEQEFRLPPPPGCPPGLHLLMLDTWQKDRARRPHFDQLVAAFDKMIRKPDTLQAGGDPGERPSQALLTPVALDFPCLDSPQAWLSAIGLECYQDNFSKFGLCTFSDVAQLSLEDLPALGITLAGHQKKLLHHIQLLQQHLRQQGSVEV
T29 sequence (Q13873 27-1038): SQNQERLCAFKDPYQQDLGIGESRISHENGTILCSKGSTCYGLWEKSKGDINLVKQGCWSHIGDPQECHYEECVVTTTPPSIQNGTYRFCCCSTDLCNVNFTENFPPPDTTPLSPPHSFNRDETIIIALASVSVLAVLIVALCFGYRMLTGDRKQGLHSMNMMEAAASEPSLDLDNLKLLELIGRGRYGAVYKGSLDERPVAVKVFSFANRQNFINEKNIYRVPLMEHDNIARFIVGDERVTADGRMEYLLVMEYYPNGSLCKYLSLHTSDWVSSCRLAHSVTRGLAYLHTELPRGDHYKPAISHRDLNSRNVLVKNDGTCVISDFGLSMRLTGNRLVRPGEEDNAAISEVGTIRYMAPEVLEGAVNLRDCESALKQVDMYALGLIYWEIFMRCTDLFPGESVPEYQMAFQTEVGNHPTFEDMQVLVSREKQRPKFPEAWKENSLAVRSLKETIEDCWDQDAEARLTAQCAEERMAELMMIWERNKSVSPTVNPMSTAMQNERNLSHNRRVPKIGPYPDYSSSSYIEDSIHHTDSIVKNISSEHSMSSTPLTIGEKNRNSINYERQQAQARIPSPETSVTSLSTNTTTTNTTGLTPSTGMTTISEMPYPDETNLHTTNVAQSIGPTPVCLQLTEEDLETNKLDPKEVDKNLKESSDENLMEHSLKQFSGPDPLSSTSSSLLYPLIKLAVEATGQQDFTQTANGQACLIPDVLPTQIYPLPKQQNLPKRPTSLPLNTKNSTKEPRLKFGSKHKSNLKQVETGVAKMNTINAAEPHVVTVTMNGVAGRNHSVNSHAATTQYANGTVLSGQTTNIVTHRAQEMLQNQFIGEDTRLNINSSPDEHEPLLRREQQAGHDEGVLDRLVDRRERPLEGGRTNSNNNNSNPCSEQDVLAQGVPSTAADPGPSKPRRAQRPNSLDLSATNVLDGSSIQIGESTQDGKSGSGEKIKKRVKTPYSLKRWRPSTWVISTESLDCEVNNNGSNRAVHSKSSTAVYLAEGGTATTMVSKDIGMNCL

Row | Compound | % Ctrl (PKMYT1) | % Ctrl (EPHB6) | % Ctrl (NEK9) | % Ctrl [1] | % Ctrl (SNRK) | % Ctrl (ERBB2) | % Ctrl (SRC) | % Ctrl (MARK2) | % Ctrl (DAPK2) | % Ctrl (ERK5) | % Ctrl (ULK2) | % Ctrl (CDC2L2) | % Ctrl (MST4) | % Ctrl (ARK5) | % Ctrl (RIPK5) | % Ctrl (BRAF(V600E)) | % Ctrl (PAK6) | % Ctrl (AURKA) | % Ctrl (DDR1) | % Ctrl (PIK4CB) | further results
1 | CN(C)C(=O)c1ccc(N2CCCN(c3ccnc4sc(C(N)=O)c(N)c34)CC2)cc1 [15u, 3-amino-4-(4-(4-(dimethylcarbamoyl)phenyl)-1,4-diazepan-1-yl)thieno[2,3-b]pyridine-2-carboxamide] | 91 % Ctrl | 95 % Ctrl | 100 % Ctrl | 83 % Ctrl | 100 % Ctrl | 100 % Ctrl | 100 % Ctrl | 100 % Ctrl | 75 % Ctrl | 59 % Ctrl | 90 % Ctrl | 100 % Ctrl | 95 % Ctrl | 57 % Ctrl | 100 % Ctrl | 100 % Ctrl | 82 % Ctrl | 98 % Ctrl | 82 % Ctrl | 65 % Ctrl | % Ctrl (KIT (D816H)): 91 % Ctrl; % Ctrl [2]: 99 % Ctrl; % Ctrl (EGFR(G719S)): 100 % Ctrl; % Ctrl (LZK): 100 % Ctrl; % Ctrl (NDR2): 99 % Ctrl; % Ctrl (SGK2): 100 % Ctrl; % Ctrl (PIK3CA(M1043I)): 96 % Ctrl; % Ctrl (RIPK1): 99 % Ctrl; % Ctrl (ERN1): 100 % Ctrl; % Ctrl (DAPK1): 92 % Ctrl; % Ctrl (BMPR2): 79 % Ctrl; % Ctrl [3]: 99 % Ctrl; % Ctrl (MST1): 100 % Ctrl; % Ctrl [4]: 96 % Ctrl; % Ctrl [5]: 94 % Ctrl
2 | [2H]C([2H])([2H])N(C(=O)c1ccc(N2CCCN(c3ccnc4sc(C(N)=O)c(N)c34)CC2)cc1)C([2H])([2H])[2H] [15u_D6, 3-amino-4-(4-(4-(bis(methyl-d3)carbamoyl)phenyl)-1,4-diazepan-1-yl)thieno[2,3-b]pyridine-2-carboxamide] | 94 % Ctrl | 89 % Ctrl | 89 % Ctrl | 80 % Ctrl | 75 % Ctrl | 89 % Ctrl | 96 % Ctrl | 96 % Ctrl | 85 % Ctrl | 98 % Ctrl | 83 % Ctrl | 100 % Ctrl | 89 % Ctrl | 77 % Ctrl | 72 % Ctrl | 84 % Ctrl | 99 % Ctrl | 99 % Ctrl | 90 % Ctrl | 33 % Ctrl | % Ctrl (KIT (D816H)): 66 % Ctrl; % Ctrl [2]: 100 % Ctrl; % Ctrl (EGFR(G719S)): 100 % Ctrl; % Ctrl (LZK): 87 % Ctrl; % Ctrl (NDR2): 36 % Ctrl; % Ctrl (SGK2): 81 % Ctrl; % Ctrl (PIK3CA(M1043I)): 95 % Ctrl; % Ctrl (RIPK1): 100 % Ctrl; % Ctrl (ERN1): 80 % Ctrl; % Ctrl (DAPK1): 88 % Ctrl; % Ctrl (BMPR2): 88 % Ctrl; % Ctrl [3]: 77 % Ctrl; % Ctrl (MST1): 98 % Ctrl; % Ctrl [4]: 100 % Ctrl; % Ctrl [5]: 77 % Ctrl

From patent US11572369B2, “Bicyclic pyridine compositions and methods of using the same for cancer therapy” (UNIVERSITY OF SOUTH CAROLINA, priority 2019, dated 2023)
